The term Kd denotes the free concentration of one partner at which half of the binding sites on the other are occupied at equilibrium, for simple one-to-one binding.

Kd data for 71 compounds are collected here from PubChem BioAssay AID1033 (Sanford-Burnham Center for Chemical Genomics, 2008).

Calls of active or inactive are those of the source. The rule behind the calls is not given here.

Chaperone protein DnaK (Escherichia coli (strain K12)), sequence (P0A6Y8 whole entry, looked up, the tested form may be a part): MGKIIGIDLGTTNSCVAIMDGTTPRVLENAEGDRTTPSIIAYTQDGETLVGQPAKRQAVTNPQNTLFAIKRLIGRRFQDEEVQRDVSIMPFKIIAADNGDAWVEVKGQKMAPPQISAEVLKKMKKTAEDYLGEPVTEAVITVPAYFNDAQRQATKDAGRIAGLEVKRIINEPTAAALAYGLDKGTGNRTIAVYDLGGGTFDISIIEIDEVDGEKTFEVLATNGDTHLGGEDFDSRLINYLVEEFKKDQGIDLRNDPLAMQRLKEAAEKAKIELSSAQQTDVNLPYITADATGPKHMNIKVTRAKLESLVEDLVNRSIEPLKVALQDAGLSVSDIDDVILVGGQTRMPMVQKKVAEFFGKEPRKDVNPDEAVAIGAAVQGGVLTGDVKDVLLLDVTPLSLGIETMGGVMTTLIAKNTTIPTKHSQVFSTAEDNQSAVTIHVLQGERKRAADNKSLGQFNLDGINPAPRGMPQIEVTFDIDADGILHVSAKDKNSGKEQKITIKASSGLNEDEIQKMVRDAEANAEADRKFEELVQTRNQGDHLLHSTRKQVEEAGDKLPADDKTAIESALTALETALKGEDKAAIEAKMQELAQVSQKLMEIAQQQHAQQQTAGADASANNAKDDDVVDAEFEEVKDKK

This assay addresses Chaperone protein DnaK (Escherichia coli (strain K12)) (UniProt P0A6Y8). Briefly: binders of DnaK substrate-binding domain, biophysical, NMR, chaperone (AID 1033). To be noted: Purified DnaK SBD, NMR ligand binding.
Turning to `O=c1oc(-c2ccccc2)nc2c1cnn2-c1ccccc1`, the Kd is > 4 mM (inactive).
To `OCc1ccc(-n2cncn2)cc1` belongs > 4 mM (inactive); to `COC(=O)[C@@H]1C(O)CC[C@H]2CN3CCc4c([nH]c5ccccc45)[C@@H]3C[C@@H]21` (stereo partly specified), > 4 mM (inactive).
As for `O=C(O)C1(O)C[C@@H](O)C(O)[C@H](O)C1` (stereo partly specified), the Kd is > 4 mM (inactive).
To `Nc1ccc(Cl)nn1` belongs > 4 mM (inactive); to `NC(=O)c1ccc(SCC(=O)O)c([N+](=O)[O-])c1`, > 4 mM (inactive).
Regarding `O=C(Nc1cnc2ccccn2c1=O)c1ccc(F)cc1`, the Kd was > 4 mM (inactive).
To `Nc1cc(=O)[nH]c(SCC(=O)Nc2nccs2)n1` belongs > 4 mM (inactive); to `O=C(Nc1ccc(O)cc1)N1CCOCC1`, > 4 mM (inactive).
To `Cn1c(=O)c2ccccc2n(Cc2ccccc2F)c1=O` belongs > 4 mM (inactive).
On to `O=C(Nc1c[nH]c(=O)[nH]c1=O)c1cccs1`, for which the Kd is > 4 mM (inactive).
To `COc1ccc(N2CC(=O)NC2=O)cc1` belongs > 4 mM (inactive); to `Cn1ccnc1SCc1cc(=O)[nH]c2ccccc12`, > 4 mM (inactive).
For `NC(=O)COc1ccccc1O` the value was > 4 mM (inactive); for `O=C1CCCN1c1ccc(S(=O)O)cc1`, > 4 mM (inactive); for `Cc1oc(-c2ccccc2)cc1C(=O)O`, > 4 mM (inactive).
For `Cn1cnc2nc3n(c2c1=O)CCC3` the value was > 4 mM (inactive); for `CC(=O)Oc1c(-c2ccccc2)oc2c(CC=C(C)C)c3c(c(OC(C)=O)c2c1=O)C=CC(C)(C)O3`, > 4 mM (inactive).
Consider `COc1ccc(C)cc1S(=O)(=O)NC1CCCC1`, for which the Kd is > 4 mM (inactive).
To `CCn1c(=O)cc(N2CCC3(CC2)OCCO3)[nH]c1=O` belongs > 4 mM (inactive); to `O=C(c1cc2ccccc2o1)c1nc2c(n1O)CCCCC2`, > 4 mM (inactive); to `COc1ccc2[nH]cc(CCN(C)C)c2c1`, > 4 mM (inactive).
For `CCc1noc(C)c1C(=O)Nc1ncc(C)s1` the value was > 4 mM (inactive); for `CNc1nnc(CSc2nc(C)cc(C)n2)s1`, > 4 mM (inactive).
For the compound `NC(=O)c1ccc(Cl)c(N2C(=O)CCC2=O)c1`, the Kd is > 4 mM (inactive).
As to `COc1cccc(OC)c1C(=O)N1CCOCC1`, the Kd was > 4 mM (inactive).
To `O=C1c2ccccc2C(=O)N1/N=C/c1ccc[nH]1` belongs > 4 mM (inactive); to `O=C(NCCCSc1ncccn1)Nc1ncccn1`, > 4 mM (inactive).
On to `Nc1nc(-c2ccc(O)cc2)cs1`, for which the Kd was > 4 mM (inactive).
For `c1ccc(Cn2cccc2)nc1` the value was > 4 mM (inactive); for `CC(=O)NN1C(=O)c2cccc3cccc(c23)C1=O`, > 4 mM (inactive); for `C=CCn1c(-c2ccc(O)cc2)n[nH]c1=S`, > 4 mM (inactive).
On to `O=c1[nH]c2sc3c(c2c2ncnn12)CCCC3`, for which the Kd is > 4 mM (inactive).
For the compound `Cc1cc(C(=O)Nn2cnnc2)cs1`, the Kd was > 4 mM (inactive).
To `COC(=O)c1cccc(Cn2nnc3ccccc3c2=O)c1` belongs > 4 mM (inactive); to `Nc1ccc2c(c1)OCO2`, > 4 mM (inactive); to `COC(=O)CC1=Nc2ccccc2NC(=O)C1`, > 4 mM (inactive).
For `Cc1ccc2c(c1)=C(c1sc(N)nc1O)C(=O)N=2` the value was > 4 mM (inactive); for `O=C(c1ccc(F)cc1)C1CCNCC1`, > 4 mM (inactive).
Turning to `Cc1ccccc1-n1c(-c2ccncc2)n[nH]c1=S`, the Kd was > 4 mM (inactive).
For `CO[C@H]1[C@@H](O)[C@@H](C)O[C@H](O[C@H]2CCC3(C)C4CCC5(C)[C@@H](C6=CC(=O)OC6)CC[C@]5(O)[C@@H]4CC[C@]3(O)C2)[C@@H]1O` (stereo partly specified), the Kd is > 4 mM (inactive).
Turning to `CC(=O)c1c(O)cc(C)n(Cc2ccccc2)c1=O`, the Kd was > 4 mM (inactive).
To `O=C(CC1CCCCC1)N1CCN(c2ccccn2)CC1` belongs > 4 mM (inactive).
Take `Cc1cc(C(=O)Nc2ccon2)cs1`: the Kd was > 4 mM (inactive).
Regarding `O=C1CC(=O)N2N=C(c3ccccc3)SC2=N1`, the Kd is > 4 mM (inactive).
To `CS(=O)(=O)CCCCN=C=S` belongs > 4 mM (inactive); to `Cc1ccc(-n2ncc(C#N)c2/N=C/N(C)C)cc1`, > 4 mM (inactive); to `CCN1C[C@@]2(COC)C3[C@@H](OC)[C@H]4[C@@H]1[C@]3(C(OC)C[C@H]2O)C1C[C@@]2(O)[C@H](OC(=O)c3ccccc3)C1[C@]4(OC(C)=O)[C@@H](O)[C@@H]2OC` (stereo partly specified), > 4 mM (inactive).
To `CNC(=S)N1CCN(C(=O)c2ccco2)CC1` belongs > 4 mM (inactive).
For `C=C(C)[C@H]1COc2cc3oc(=O)ccc3cc2O1` the value was > 4 mM (inactive); for `COc1c2c(c(CC=C(C)C)c3oc(=O)c(-c4ccc(O)cc4)c(O)c13)OC(C)(C)C=C2`, > 4 mM (inactive); for `O=C(c1ccco1)N1C(=O)c2cccc3cccc1c23`, > 4 mM (inactive).
Consider `CC(=O)Nc1nc2c(s1)C(=O)NCCC2`, for which the Kd is > 4 mM (inactive).
`CC(C)(OC(=O)c1ccccc1)[C@@H]1Cc2cc3ccc(=O)oc3cc2O1`: the Kd was > 4 mM (inactive).
To `C=C(C)[C@H]1Cc2c(ccc3c2O[C@@H]2COc4cc(OC)c(OC)cc4[C@@H]2C3=O)O1` belongs > 4 mM (inactive); to `Cc1c(/C=N\n2cnnc2)c2ccccc2n1C`, > 4 mM (inactive); to `O=C(O)CN1CCNCC1`, > 4 mM (inactive).
For `Nn1c(CN2CCCCC2)nc2ccccc2c1=O`, the Kd is > 4 mM (inactive).
To `Cc1sc2nc(NCCO)[nH]c(=O)c2c1C` belongs > 4 mM (inactive); to `O=C(NN1C(=O)c2ccccc2C1=O)c1cccs1`, > 4 mM (inactive).
Regarding `Cn1nnc2cc(C(=O)N3CCSCC3)ccc21`, the Kd was > 4 mM (inactive).
For `Cc1ccccc1NC(=O)N1CCOCC1`, the Kd is > 4 mM (inactive).
To `C=C1[C@H]2CC[C@@]3(C)[C@H](c4ccoc4)OC(=O)C[C@]13O[C@H]1C[C@H](O)C(C)(C)[C@H](CC(=O)OC)[C@]12C` belongs > 4 mM (inactive); to `NC(=O)c1cc2c(n(-c3ccccc3)c1=O)CCCC2=O`, > 4 mM (inactive); to `CCCCCC(=O)Cc1cc(O)cc(O)c1C(=O)Oc1cc(CC(=O)CCCCC)c(C(=O)O)c(OC)c1`, > 4 mM (inactive).
For `COC1C=CC23c4cc5c(cc4CN(CC2O)[C@@H]3C1)OCO5` (stereo partly specified) the value was > 4 mM (inactive); for `Cn1c(CN)nc2ccccc21`, > 4 mM (inactive).
With `CC1(C)Cc2nc(N3CCOCC3)c(C#N)cc2CO1`, the Kd is > 4 mM (inactive).
As to `Oc1ccc(/C=C/c2cc(O)cc(O)c2)cc1`, the Kd was > 4 mM (inactive).
Take `OC1CNCc2cc3c(cc21)OCCO3` (stereo unspecified): the Kd is > 4 mM (inactive).
To `C[C@H](CCC(=O)O)[C@H]1CCC2C3C(CC[C@@]21C)[C@@]1(C)CC[C@@H](O)C[C@H]1C[C@@H]3O` (stereo partly specified) belongs > 4 mM (inactive).
